{"source": "patent US20190136195A1", "about": "“COMPOSITION FOR TREATING TENDONITIS AND MANUFACTURE THEREOF” (Gwo Xi Stem Cell Applied Technology Co., Ltd., priority 2016, published 2019)", "type_in_all_cases": "cell-based, Human", "key": {"SCX": {"tested_on": "SCX", "assay": "mRNA expression of tendon healing factors in hADSC: SCX", "settings": "hADSC at 1×10^5 cell/ml, 2.5 μg/ml, 96 or 168 hours", "protocol": "(§1) 20 ml of 1.0×10^5 or 0.2×10^5 cells/ml hADSCs in DMEM medium (10% fetal bovine serum, 1% L-glutamine, 1% non-essential amino acid (NEAA), and 1% sodium pyruvate) was placed on a 15-cm dish, mixed with 2.5 μg/ml butylidenephthalide, and then incubated at 37° C. in a 5% CO2 incubator for 96 hours. After the medium was removed and replaced with fresh medium, hADSCs was cultured under the same condition as described above until 168 hours."}, "hADSCs": {"tested_on": "hADSCs", "assay": "Cell activity (MTT cell viability) of hADSC with butylidenephthalide", "settings": "24 and 48 hours", "protocol": "hADSCs were seeded on a 96-well plate at a density of 3×10^3 cell/100 μl, and the 96-well plate was incubated at 37° C. in a humidified 5% CO2 atmosphere. After 16 hours, butylidenephthalide of various concentrations was added to the 96-well plate and then incubated at 37° C. in a 5% CO2 incubator. After 24 and 48 hours, the cell viability was determined. In cell viability assay, 100 μl of 10% MTT reagent was added to each well and then incubated in an incubator for 2 hours. 150 μl DMSO was added and mixed for 15 minutes. The absorbance (OD) of the aqueous solution was determined at 570 nm. According to FIG. 1, butylidenephthalide would not affect the cell activity if its concentration was blow 5 μg/ml. Therefore, 2.5 μg/ml of butylidenephthalide was selected to be used in the following experiments."}, "COL1A1": {"tested_on": "COL1A1", "assay": "mRNA expression of tendon healing factors in hADSC: COL1A1", "settings": "hADSC at 1×10^5 cell/ml, 2.5 μg/ml, 96 or 168 hours", "protocol": "as §1"}, "[1]": {"tested_on": "COL1 protein (collagen, COL1A1)", "assay": "Protein expression of COL1A1 in hADSC", "settings": "hADSC at 1×10^5 cell/ml, 2.5 μg/ml, 96 or 168 hours", "protocol": "as §1"}}, "note": "Entries after “also recorded” stand apart in the source; their conditions may differ.", "data": [{"smiles": "CCCC=C1OC(=O)c2ccccc21", "note": "[butylidenephthalide, Butylidenephthalide]", "values": [{"measurement": "SCX mRNA expression", "setting": "SCX", "value": "increased, significantly; also recorded: significant increase"}, {"measurement": "concentration that would not affect the cell activity (MTT)", "setting": "hADSCs", "value": "< 5000", "unit": "ng/mL"}, {"measurement": "COL1A1 mRNA expression", "setting": "COL1A1", "value": "increased, significantly; also recorded: significant increase"}, {"measurement": "COL1A1 protein expression", "setting": "[1]", "value": "increased, significantly; also recorded: significant increase"}]}]}
